The test system of this assay is human neutrophils. Kind of assay: Human neutrophil chemotaxis / Ca2+ flux with FPR1 inhibited by CHIPS. The format is cell-based. The note with it: peptide 100 nM; CHIPS 1.4 µg/ml, 20 min pre-incubation at room temperature; three donors, quadruplicate. Here is the method:
Next, we analyzed Ca^2+ flux as a general measure to test for neutrophil activation, as used in previous studies. HL60 cells stably transfected with different FPR receptor genes were used to determine which FPR receptors are differentially activated by PSMα3 versus PSMα3N22Y (Fig. 4A). […] At a peptide concentration of 100 nM, we observed a difference of ∼factor 2 in chemotactic activity comparing the two peptides when FPR1 recognition was inhibited by CHIPS, likely attributable to FPR2-mediated recognition. […]
(A) Differential activation of FPRs by PSMα3 versus PSMα3N22Y was measured using synthetic peptides and Ca^2+ flux observed in HL60 cells stably transfected with the corresponding FPR genes as readout, using three biological and two technical replicates. The calculated Kd values are shown on the right. […]
Human neutrophils were isolated from venous blood of healthy donors as described, [39]. Neutrophil chemotaxis and Ca^2+ flux were determined as previously described, [24]. […] Chemotaxis of neutrophils was determined using a transwell system (Costar) with analysis of neutrophil migration using fluorescence labeling. Calcium fluxes were monitored as a surrogate marker for chemotaxis since it can be measured more robustly and accurately than chemotaxis. […] Measurements of 2,000 events were performed and Ca^2+ flux was expressed as relative fluorescence corrected for buffer controls. […]

The text below walks through data of publication PMC4140855, “Production of an Attenuated Phenol-Soluble Modulin Variant Unique to the MRSA Clonal Complex 30 Increases Severity of Bloodstream Infection” (PLoS Pathogens, 2014).

Molecules are shown by their SMILES.

On to `CSCC[C@H](NC=O)C(=O)N[C@@H](CCC(=O)O)C(=O)N[C@@H](Cc1ccccc1)C(=O)N[C@H](C(=O)N[C@@H](C)C(=O)N[C@@H](CCCCN)C(=O)N[C@@H](CC(C)C)C(=O)N[C@@H](Cc1ccccc1)C(=O)N[C@@H](CCCCN)C(=O)N[C@@H](Cc1ccccc1)C(=O)N[C@@H](Cc1ccccc1)C(=O)N[C@@H](CCCCN)C(=O)N[C@@H](CC(=O)O)C(=O)N[C@@H](CC(C)C)C(=O)N[C@@H](CC(C)C)C(=O)NCC(=O)N[C@@H](CCCCN)C(=O)N[C@@H](Cc1ccccc1)C(=O)N[C@@H](CC(C)C)C(=O)NCC(=O)N[C@@H](CC(N)=O)C(=O)N[C@@H](CC(N)=O)C(=O)O)C(C)C` [PSMα3], for which the “Factor of difference in chemotactic activity between the two peptides, FPR1 inhibited by CHIPS” value was around 2.
